This test concerns rat hippocampal slices. Put plainly: Reduction of azide-induced ischemic efflux of glutamate in rat hippocampal slices. Conditions: versus control, statistically significant, read-out: reduction of glutamate release (azide-induced ischemic efflux of glutamate). In kind it is cell-based. On the procedure:
Adatanserin was evaluated for its ability to reduce the azide-induced ischemic efflux of glutamate in rat hippocampal slices. Three Krebs buffers were used in the experiments. Normal Krebs buffer consisted of a solution containing the following: (122 mM NaCl, 3 mM KCl, 24 mM NaHCO3, 10 mM glucose, 0.315 mM K2HPO4, 1.2 mM MgSO4, 4 mM CaCl2). Aglycemic Krebs buffer was similar to the normal buffer with the exception that glucose was not added. Ischemic Krebs buffer was the aglycemic solution which contained varying concentrations of sodium azide (0 - 30 mM).
Rat hippocampi were dissected on a cold platform and suspended in ice cold oxygenated normal Krebs buffer. The tissue was cross-chopped at 350 microns on a Mcllwain tissue chopper, then resuspended and washed three times with ice cold normal Krebs buffer. […] Amino acid concentrations were analyzed with reverse phase HPLC on a catacholamine column (Keystone Scinetific, 150 x 3 mm) employing an 0.05 M acetate/methanol gradient. […] Amino acids were visualized by derivatization with naphthalene-2,3-dicarboxaldehyde and fluorimetric detection (Dawson, L. A. et al., Improved Temporal Resolution of Microdialysis Measurement of Glutamate and Aspartate Using Capillary Electrophoresis with Laser Induced Fluorescence Detection. J. Chromatogr. B 1997, 694, 1204-1212). […]

Molecules are shown by their SMILES.

Regarding `O=C(NCCN1CCN(c2ncccn2)CC1)C12CC3CC(CC(C3)C1)C2` [adatanserin, N-[2-[4-(2-pyrimidinyl)-1-piperazinyl]ethyl]tricyclo[3.3.1.13,7]decane-1-carboxamide], the inhibition at 0.1 µM (adatanserin 100 nM) is 72%. In addition, the inhibition at 1 µM (adatanserin 1000 nM (1 µM)) was found to be 71%.

For the origin of these results see EP1547597A2, “Use of adatanserin for the treatment of neurodegenerative conditions” (Wyeth, priority 1999, dated 2001).
